The source of these data is patent publication US20120322125A1, “CONTROL OF CONTAMINANT MICROORGANISMS IN FERMENTATION PROCESSES WITH SYNERGISTIC FORMULATIONS CONTAINING PEROXIDE COMPOUND AND QUATERNARY AMMONIUM COMPOUND” (E. I. DU PONT DE NEMOURS AND COMPANY, priority 2010, published 2012).

Assay [1] relates to lactic acid bacteria (LAB) species (Lactobacillus brevis, Lactobacillus plantarum, Lactobacillus paracasei). As to the kind of experiment: Viable count of lactic acid bacteria cocktail in treated molasses medium. Format: cell-based. As to conditions: for Viable Population: LAB in molasses medium, 32° C. On the procedure: (§1) A fermentation broth was prepared by diluting 1 part molasses with 3 parts water as is commonly practiced in molasses-based fermentation processes. A cocktail of three lactic acid bacteria (LAB) species (Lactobacillus brevis, Lactobacillus plantarum, Lactobacillus paracasei) was concurrently prepared by growing an overnight culture of each bacteria in deMann-Rogosa-Sharpe (MRS) broth (available from Difco Laboratories, Inc., Sparks, Md.) at 32° C. in a shaking incubator, then combining the broth to make up a mixed culture. A separate overnight culture of Saccharomyces cerevisiae (inoculant yeast) was prepared by growing an overnight culture in Yeast Peptone Dextrose (YPD) broth (available from Difco Laboratories Inc., Sparks, Md.). A potion of the molasses medium was inoculated with the cocktail of LAB to result in approximately 1×10^6 colony forming units (CFU) per ml of medium. A separate portion was inoculated with the yeast to result in approximately 6×10^5 CFU/ml. Portions of the inoculated molasses medium were treated with hydrogen peroxide (HP), quaternary ammonium compound (didecyl dimethyl ammonium chloride) or combinations of the two as outlined below:
(§2) Treated samples were incubated at 32° C. in a shaking incubator, following which serial dilutions were made in phosphate buffered saline (PBS) before plating the dilutions on MRS agar and Potato Dextrose Agar (PDA) plates for viable count determination. The plates were incubated at 32° C. for 48 hrs.

Assay [2] has as its system Saccharomyces cerevisiae (inoculant yeast). Nature of the assay: Viable count of inoculant yeast in treated molasses medium. The assay is classed as cell-based. To be noted: for Viable Population: S. cerevisiae in molasses medium, 32° C. On the procedure: as §1, §2

As for `OO` [HP, hydrogen peroxide], the “Viable Population” value is 4.5 × 10^5 CFU/ml in assay [1] (75 ppm HP) and 8.1 × 10^4 CFU/ml in assay [1] (100 ppm HP). For the same compound, in assay [1] (100 ppm HP by itself), the “reduction of the viable LAB population” value is on record as “about 1 log CFU/ml”.
For `CCCCCCCCCC[N+](C)(C)CCCCCCCCCC.[Cl-]` [QAC, didecyl dimethyl ammonium chloride], the “Viable Population” value is 5.0 × 10^5 CFU/ml in assay [2] (100 ppm QAC), 3.5 × 10^5 CFU/ml in assay [2] (150 ppm QAC), 1.19 × 10^6 CFU/ml in assay [1] (100 ppm QAC) and 1.16 × 10^6 CFU/ml in assay [1] (150 ppm QAC). The “effects on the viability of the inoculant yeast” value in assay [2] (similar concentrations of QAC and HP, alone or combined) is “did not have any significant effects”. In addition, in assay [1] (100 ppm QAC by itself), the “reduction of the LAB population” value is recorded as “did not reduce”.
